Where “and” joins values, the source holds several entries; their conditions need not be identical. Equal entries are not always repeated.
Assays:
[1] = tested on: Calreticulin cells in tumor-infiltrating lymphocytes; assay: Example 2: flow cytometry, percentage of Calreticulin cells in TILs; assay type: in vivo, Mus musculus; details: individual mice and group Mean; for CD45^− live cells (CD45^−ViaKrome405^weak) Cell count / Calreticulin cells (CD45^− Calreticulin^+) Cell count / Total CD45^− cells (CD45^−) Cell count: Cell count = Total cell × Total % × 10; for CD45^− live cells (CD45^−ViaKrome405^weak) CTL Gated % / CD45^− live cells (CD45^−ViaKrome405^weak) Total % / Calreticulin cells (CD45^− Calreticulin^+) CTL Gated % / Calreticulin cells (CD45^− Calreticulin^+) Total % / Total CD45^− cells (CD45^−) CD45^+ Gated % / Total CD45^− cells (CD45^−) Total %: TILs from tumor
Method: (§1) Mice were sacrificed by CO2 euthanasia at the end of the study duration, and the connective tissue around tumor was resected. The tumor samples were then weighed and cut equally into three sections if the tumor weight over 400 mg. The tumor tissue was prepared for the isolation of tumor-infiltrating lymphocytes (TILs). The rest of one section was fixed in 10% formaldehyde and embedded in paraffin; the other was stored at a temperature below −70° C.
(§2) The tumor samples were dissected into smaller fragments using scalpels and then digested with a cocktail of collagenase, DNase I, and Hyaluronidase (Collagenase #C5138, DNase I #D5025, Hyaluronidase #H6254, SigmaAldrich) for at least 2 hours.
(§3) Cells were stained with the fluorescently conjugated surface antibodies and incubated for 30 minutes at 4° C., and then resuspended in staining buffer for flow cytometric analysis. Flow cytometry was done using a Navios EX Flow Cytometer (Beckman Coulter). Data were analyzed using the Kaluza Analysis Software (Beckman Coulter).

[2] = tested on: T helper (TH) cells (CD45^+CD4^+ T cells) in tumor-infiltrating lymphocytes; assay: Example 2: flow cytometry, percentage of TH cells in TILs; assay type: in vivo, Mus musculus
Method: as §1, §2, §3

[3] = G2: OBI-3424 0.3 mg/kg, 0.3 mg/kg
[4] = G2: OBI-3424 0.3 mg/kg, 0.3 mg/kg, group mean
[5] = G3: OBI-3424 1 mg/kg, 1 mg/kg, group mean
[6] = G2: OBI-3424 (0.3 mg/kg), group Mean
[7] = G2: OBI-3424 (0.3 mg/kg), individual animals, 0.3 mg/kg

C[C@H](OP(=O)(N1CC1)N1CC1)c1ccc([N+](=O)[O-])c(Oc2cccc(C(=O)N(C)C)c2)c1 [OBI-3424, (S)-1-(3-(3-N,N-dimethylaminocarbonyl)phenoxyl-4-mtrophenyl)-1-ethyl-N,N′-bis(ethylene)phosphoramidate] was tested, and the “CD45^− live cells (CD45^−ViaKrome405^weak) Cell count” value [1, 3] was 39.37 ×10^5 and 25.28 ×10^5 and 83.81 ×10^5 and 1.35 ×10^5 and 29.90 ×10^5 and 5.87 ×10^5, the “Calreticulin cells (CD45^− Calreticulin^+) Cell count” value [1, 3] was 5.54 ×10^5 and 1.27 ×10^5 and 10.26 ×10^5 and 0.06 ×10^5 and 1.11 ×10^5 and 0.19 ×10^5 and the “Total CD45^− cells (CD45^−) Cell count” value [1, 3] was 70.58 ×10^5 and 45.89 ×10^5 and 130.41 ×10^5 and 2.18 ×10^5 and 65.25 ×10^5 and 10.35 ×10^5. For the same compound, the “CD45^− live cells (CD45^−ViaKrome405^weak) Cell count” value [1, 4] was 30.93 ×10^5, the “Calreticulin cells (CD45^− Calreticulin^+) Cell count” value [1, 4] was 3.07 ×10^5 and the “Total CD45^− cells (CD45^−) Cell count” value [1, 4] was 54.11 ×10^5. For the same compound, the “CD45^− live cells (CD45^−ViaKrome405^weak) CTL Gated %” value [1, 3] was 55.78% and 55.07% and 64.29% and 61.79% and 45.83% and 56.69%, the “CD45^− live cells (CD45^−ViaKrome405^weak) Total %” value [1, 3] was 20.24% and 12.36% and 15.52% and 6.30% and 12.13% and 8.10% and the “Calreticulin cells (CD45^− Calreticulin^+) CTL Gated %” value [1, 3] was 14.09% and 5.02% and 12.21% and 4.51% and 3.69% and 3.21%. For the same compound, the “Calreticulin cells (CD45^− Calreticulin^+) Total %” value [1, 3] was 2.85% and 0.62% and 1.90% and 0.28% and 0.45% and 0.26%, the “Total CD45^− cells (CD45^−) CD45^+ Gated %” value [1, 3] was 50.59% and 29.66% and 28.87% and 12.41% and 31.01% and 21.40% and the “Total CD45^− cells (CD45^−) Total %” value [1, 3] was 36.29% and 22.44% and 24.15% and 10.20% and 26.47% and 14.28%. For the same compound, the “CD45^− live cells (CD45^−ViaKrome405^weak) CTL Gated %” value [1, 4] was 56.58%, the “CD45^− live cells (CD45^−ViaKrome405^weak) Total %” value [1, 4] was 12.44% and the “Calreticulin cells (CD45^− Calreticulin^+) CTL Gated %” value [1, 4] was 7.12%. The “Calreticulin cells (CD45^− Calreticulin^+) Total %” value [1, 4] was 1.06%, the “Total CD45^− cells (CD45^−) CD45^+ Gated %” value [1, 4] was 28.99% and the “Total CD45^− cells (CD45^−) Total %” value [1, 4] was 22.31%. For the same compound, the “CD45^− live cells (CD45^−ViaKrome405^weak) Cell count” value ([1]; G3: OBI-3424 1 mg/kg, 1 mg/kg) was 1.72 ×10^5 and 9.67 ×10^5 and 7.88 ×10^5 and 9.07 ×10^5 and 5.22 ×10^5 and 6.72 ×10^5, the “Calreticulin cells (CD45^− Calreticulin^+) Cell count” value ([1]; G3: OBI-3424 1 mg/kg, 1 mg/kg) was 0.05 ×10^5 and 0.25 ×10^5 (2×) and 0.88 ×10^5 and 0.19 ×10^5 and 0.12 ×10^5 and the “Total CD45^− cells (CD45^−) Cell count” value ([1]; G3: OBI-3424 1 mg/kg, 1 mg/kg) was 2.45 ×10^5 and 15.22 ×10^5 and 11.73 ×10^5 and 11.65 ×10^5 and 8.38 ×10^5 and 8.94 ×10^5. For the same compound, the “CD45^− live cells (CD45^−ViaKrome405^weak) Cell count” value [1, 5] was 6.71 ×10^5, the “Calreticulin cells (CD45^− Calreticulin^+) Cell count” value [1, 5] was 0.29 ×10^5 and the “Total CD45^− cells (CD45^−) Cell count” value [1, 5] was 9.73 ×10^5. For the same compound, the “CD45^− live cells (CD45^−ViaKrome405^weak) CTL Gated %” value ([1]; G3: OBI-3424 1 mg/kg, 1 mg/kg) was 70.28% and 63.52% and 67.13% and 77.84% and 62.30% and 75.12%, the “CD45^− live cells (CD45^−ViaKrome405^weak) Total %” value ([1]; G3: OBI-3424 1 mg/kg, 1 mg/kg) was 5.94% and 7.66% and 11.16% and 9.18% and 7.02% and 8.30% and the “Calreticulin cells (CD45^− Calreticulin^+) CTL Gated %” value ([1]; G3: OBI-3424 1 mg/kg, 1 mg/kg) was 2.90% and 2.61% and 11.18% and 2.75% and 3.65% and 1.83%. For the same compound, the “Calreticulin cells (CD45^− Calreticulin^+) Total %” value ([1]; G3: OBI-3424 1 mg/kg, 1 mg/kg) was 0.17% and 0.20% and 1.25% and 0.25% and 0.26% and 0.15%, the “Total CD45^− cells (CD45^−) CD45^+ Gated %” value ([1]; G3: OBI-3424 1 mg/kg, 1 mg/kg) was 9.67% and 13.99% and 19.95% and 13.15% and 12.84% and 12.22% and the “Total CD45^− cells (CD45^−) Total %” value ([1]; G3: OBI-3424 1 mg/kg, 1 mg/kg) was 8.45% and 12.06% and 16.62% and 11.79% and 11.27% and 11.04%. For the same compound, the “CD45^− live cells (CD45^−ViaKrome405^weak) CTL Gated %” value [1, 5] was 69.37%, the “CD45^− live cells (CD45^−ViaKrome405^weak) Total %” value [1, 5] was 8.21% and the “Calreticulin cells (CD45^− Calreticulin^+) CTL Gated %” value [1, 5] was 4.15%. For the same compound, the “Calreticulin cells (CD45^− Calreticulin^+) Total %” value [1, 5] was 0.38%, the “Total CD45^− cells (CD45^−) CD45^+ Gated %” value [1, 5] was 13.64% and the “Total CD45^− cells (CD45^−) Total %” value [1, 5] was 11.87%. For the same compound, the “TH cells (CD45^+CD4^+ T cells) in TILs” value ([2]; Example 2, mean±SEM, OBI-3424 1 mg/kg, alone (G3) or with anti-hPD-1 (G6)) was 25.05±2.08%, the “CD25^+ TH cells (CD45^+CD4^+ CD25^+) Total %” value [2, 6] was 2.46% and the “CD25^+ TH cells (CD45^+CD4^+CD25^+) Cell count (×10^5)” value [2, 6] was 4.93 ×10^5. The “CD25^+ TH cells (CD45^+CD4^+CD25^+) TH Gated %” value [2, 6] was 18.22%, the “CD69^+ TH cells (CD45^+CD4^+CD69^+) Cell count (×10^5)” value [2, 6] was 13.89 ×10^5 and the “CD69^+ TH cells (CD45^+CD4^+CD69^+) TH Gated %” value [2, 6] was 60.13%. The “CD69^+ TH cells (CD45^+CD4^+CD69^+) Total %” value [2, 6] was 8.46%, the “Foxp3^+ Treg cells (CD45^+CD4^+CD25^+Foxp3^+) Cell count (×10^5)” value [2, 6] was 0.24 ×10^5 and the “Foxp3^+ Treg cells (CD45^+CD4^+CD25^+Foxp3^+) TH Gated %” value [2, 6] was 5.27%. The “Foxp3^+ Treg cells (CD45^+CD4^+CD25^+Foxp3^+) Total %” value [2, 6] was 0.12%, the “PD-1^+ TH cells (CD45^+CD4^+ PD-1^+) Cell count (×10^5)” value [2, 6] was 20.36 ×10^5 and the “PD-1^+ TH cells (CD45^+CD4^+ PD-1^+) TH Gated %” value [2, 6] was 93.96%. For the same compound, the “PD-1^+ TH cells (CD45^+CD4^+ PD-1^+) Total %” value [2, 6] was 12.11%, the “TH cells (CD45^+CD4^+) CD45^+ Gated %” value [2, 6] was 33.51% and the “TH cells (CD45^+CD4^+) Cell count (×10^5)” value [2, 6] was 21.50 ×10^5. For the same compound, the “TH cells (CD45^+CD4^+) Total %” value [2, 6] was 12.88%, the “CD25^+ TH cells (CD45^+CD4^+ CD25^+) Total %” value [2, 7] was 1.65% and 2.12% and 4.23% and 2.84% and the “CD25^+ TH cells (CD45^+CD4^+CD25^+) Cell count (×10^5)” value [2, 7] was 4.34 ×10^5 and 3.39 ×10^5 and 8.91 ×10^5 and 0.45 ×10^5 and 10.43 ×10^5 and 2.06 ×10^5. For the same compound, the “CD25^+ TH cells (CD45^+CD4^+CD25^+) TH Gated %” value [2, 7] was 18.38% and 17.49% and 18.21% and 10.15% and 30.45% and 14.61%, the “CD69^+ TH cells (CD45^+CD4^+CD69^+) Cell count (×10^5)” value [2, 7] was 14.86 ×10^5 and 13.89 ×10^5 and 28.08 ×10^5 and 3.35 ×10^5 and 16.93 ×10^5 and 6.24 ×10^5 and the “CD69^+ TH cells (CD45^+CD4^+CD69^+) TH Gated %” value [2, 7] was 63.07% and 71.55% and 57.32% and 49.45% and 44.32%. For the same compound, the “CD69^+ TH cells (CD45^+CD4^+CD69^+) Total %” value [2, 7] was 7.64% and 6.79% and 5.20% and 15.65% and 6.87% and 8.60%, the “Foxp3^+ Treg cells (CD45^+CD4^+CD25^+Foxp3^+) Cell count (×10^5)” value [2, 7] was 0.21 ×10^5 and 0.27 ×10^5 and 0.43 ×10^5 and 0.03 ×10^5 and 0.39 ×10^5 and 0.08 ×10^5 and the “Foxp3^+ Treg cells (CD45^+CD4^+CD25^+Foxp3^+) TH Gated %” value [2, 7] was 5.03% and 7.95% and 5.08% and 6.05% and 3.69% and 3.81%. For the same compound, the “Foxp3^+ Treg cells (CD45^+CD4^+CD25^+Foxp3^+) Total %” value [2, 7] was 0.11% (2×) and 0.13% (2×) and 0.08% and 0.16% and the “PD-1^+ TH cells (CD45^+CD4^+ PD-1^+) Cell count (×10^5)” value [2, 7] was 21.12 ×10^5 and 16.11 ×10^5 and 38.56 ×10^5 and 4.30 ×10^5 and 32.19 ×10^5 and 9.90 ×10^5.
